The results in this text go back to patent publication US20150045553A1, “PHENYLTRIAZOLE DERIVATIVE” (TOSHO PHARMACEUTICAL CO., LTD, priority 2011, published 2015).

The target of one data set is T1, H3 receptor (Rattus norvegicus, UniProt Q9QYN8).
T1 construct: The frontal cortex dissected from rats was homogenized; from tissue; host or cells: rat frontal cortex membrane fraction
Nature of the data set: Rat H3 receptor binding test (N-α-methyl[3H]histamine, frontal cortex membrane fraction). As to conditions: N-α-methyl[3H]histamine 0.75 nM, room temperature, an hour. The protocol:
(Test 1: Rat H3 Receptor Binding Test)
The frontal cortex dissected from rats was homogenized with a Teflon (registered trademark) homogenizer in a 50 mM Tris-HCl buffer solution (pH 7.4) containing a protease inhibitor (Complete EDTA-free; Roche Diagnostics) and 5 mM EDTA. The homogenate was centrifuged at 48,000×g for 15 minutes. The supernatant was removed and the pellet was suspended in a 50 mM Tris-HCl buffer solution (pH 7.4) containing 5 mM EDTA and centrifuged at 48,000×g for 15 minutes. The supernatant was removed and the pellet was suspended in a 50 mM Tris-HCl buffer solution (pH 7.4) containing 5 mM EDTA to give a membrane fraction. The membrane fraction (the protein content in the final reaction mixture: 75 μg), N-α-methyl[^3H]histamine (PerkinElmer; final concentration: 0.75 nM) and a test drug were mixed and subjected to reaction at room temperature for an hour. After the end of the reaction, the reaction mixture was suction filtered through a 96-well GF/C filter plate pretreated with 0.3% polyethyleneimine; the filters were then washed five times with a 50 mM Tris-HCl buffer solution (pH 7.4) containing 5 mM EDTA. After the washing, the filters were dried and a scintillator was added to measure the residual radioactivity on the filter with TopCount (PerkinElmer).
The residual radioactivity in the presence of 10 μM thioperamide was taken as indicative of nonspecific binding and the difference from the residual radioactivity in the absence of thioperamide was taken as indicative of specific binding. Each of the test drugs was dissolved and diluted in DMSO at varying concentrations to plot a dose-response curve from the corresponding residual radioactivities; the concentration of test drug that inhibited the specific binding by 50% (IC50) was determined from this curve.

Data set [1] deals with T2, P-glycoprotein (human MDR1) (Homo sapiens, UniProt P08183).
T2 construct: expressed in transfected cells; host or cells: LLC-GA5-COL300 (LLC-PK1 pig kidney epithelial cells expressing human MDR1)
T2 sequence (P08183 whole entry): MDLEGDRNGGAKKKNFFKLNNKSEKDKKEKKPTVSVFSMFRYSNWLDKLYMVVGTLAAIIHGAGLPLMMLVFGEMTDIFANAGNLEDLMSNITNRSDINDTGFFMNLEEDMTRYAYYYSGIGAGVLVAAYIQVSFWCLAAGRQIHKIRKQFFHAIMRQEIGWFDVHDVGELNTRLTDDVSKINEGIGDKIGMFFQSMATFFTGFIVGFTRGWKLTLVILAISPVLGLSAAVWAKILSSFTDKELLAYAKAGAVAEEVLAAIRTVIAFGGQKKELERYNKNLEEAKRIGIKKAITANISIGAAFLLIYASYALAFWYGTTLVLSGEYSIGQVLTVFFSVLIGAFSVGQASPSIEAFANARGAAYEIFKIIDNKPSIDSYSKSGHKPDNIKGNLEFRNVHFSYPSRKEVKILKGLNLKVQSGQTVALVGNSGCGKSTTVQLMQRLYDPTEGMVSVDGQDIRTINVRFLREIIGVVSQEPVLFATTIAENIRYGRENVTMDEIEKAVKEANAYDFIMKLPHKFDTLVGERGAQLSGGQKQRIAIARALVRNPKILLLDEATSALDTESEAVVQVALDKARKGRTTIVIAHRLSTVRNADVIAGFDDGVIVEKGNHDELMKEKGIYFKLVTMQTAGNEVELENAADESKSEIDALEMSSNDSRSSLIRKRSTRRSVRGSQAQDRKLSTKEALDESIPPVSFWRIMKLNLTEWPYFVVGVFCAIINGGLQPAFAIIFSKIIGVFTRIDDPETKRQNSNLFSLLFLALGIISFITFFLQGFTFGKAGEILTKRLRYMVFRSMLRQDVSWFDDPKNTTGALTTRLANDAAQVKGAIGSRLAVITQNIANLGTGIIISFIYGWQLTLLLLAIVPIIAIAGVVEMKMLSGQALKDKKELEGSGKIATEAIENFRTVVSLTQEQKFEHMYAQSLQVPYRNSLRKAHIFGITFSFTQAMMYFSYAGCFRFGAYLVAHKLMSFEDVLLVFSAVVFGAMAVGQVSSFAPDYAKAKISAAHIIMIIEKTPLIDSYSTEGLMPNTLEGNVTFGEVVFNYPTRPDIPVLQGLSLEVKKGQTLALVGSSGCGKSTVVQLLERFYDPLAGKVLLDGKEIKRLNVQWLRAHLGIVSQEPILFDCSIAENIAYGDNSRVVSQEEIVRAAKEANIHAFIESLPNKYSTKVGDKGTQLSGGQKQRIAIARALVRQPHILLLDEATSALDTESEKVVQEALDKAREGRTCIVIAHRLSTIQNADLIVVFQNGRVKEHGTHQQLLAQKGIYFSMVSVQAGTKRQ
Nature of the data set: P-glycoprotein substrate recognition test (LLC-GA5-COL300 cells, transwell). Format: in vitro ADME. The settings on record: LLC-PK1, ratio of membrane permeation coefficients for apical→basal and basal→apical directions. The protocol: (Test 4: P-Glycoprotein Substrate Recognition Test)
LLC-GA5-COL300 cells (Human MDR1 expressing system derived from pig kidney derived, cultured renal epithelial cell line LLC-PK1) were cultured on a transwell. Immediately before the test, the culture medium was replaced by Hank's balanced salt solution (HBSS) and the test was then conducted. A solution of an assay compound adjusted to a final concentration of 10 μM was added to the donor side of LLC-GA5-COL300 cells and after the passage of a predetermined period of time, a specified quantity of […] was sampled from the acceptor side. The concentration of the assay compound in the sample was measured by LC-MS/MS. From the amounts of the compound that accumulated and passed into the acceptor side, membrane permeation coefficients (×10^−6 cm/sec) were calculated for apical→basal and basal→apical directions and their relative ratio (efflux ratio) was determined to evaluate the P-glycoprotein substrate recognition.

A short description of data set [2]: Rat in vivo pharmacokinetic study (distribution among plasma, brain and cerebrospinal fluid). As to conditions: SD rats, single oral administration, 3 mg/kg, an hour after the administration. The protocol:
(Test 3: Rat in vivo pharmacokinetic study)
SD rats were given a single oral administration of Compound No. 8, 19 or 22 at a dose of 3 mg/kg and an hour after the administration, the compound's distribution among the plasma, brain, and cerebrospinal fluid was checked. Quantification was effected by a high-performance liquid chromatography/tandem mass spectrometer API 4000 (LC-MS/MS; AB Sciex).

In a further data set the target is T3, histamine H3 receptor (Rattus norvegicus, UniProt Q9QYN8).
T3 construct: The frontal cortex dissected from rats was homogenized; from tissue; host or cells: rat frontal cortex membrane fraction
T3 sequence (Q9QYN8 whole entry): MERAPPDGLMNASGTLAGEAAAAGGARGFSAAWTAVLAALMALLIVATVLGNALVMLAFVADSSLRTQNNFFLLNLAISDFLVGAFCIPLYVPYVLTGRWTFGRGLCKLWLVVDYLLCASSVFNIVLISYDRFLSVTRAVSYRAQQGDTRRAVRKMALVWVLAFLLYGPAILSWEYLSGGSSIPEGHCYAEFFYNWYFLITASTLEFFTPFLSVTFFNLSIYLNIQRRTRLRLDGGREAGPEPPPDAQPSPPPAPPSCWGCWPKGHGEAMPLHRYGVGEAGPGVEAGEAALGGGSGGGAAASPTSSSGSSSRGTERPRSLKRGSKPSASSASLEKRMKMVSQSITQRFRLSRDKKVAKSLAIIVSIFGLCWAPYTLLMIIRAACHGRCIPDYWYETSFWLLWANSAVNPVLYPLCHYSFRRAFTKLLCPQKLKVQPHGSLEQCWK
Nature of the data set: [35S]GTP-γ-S binding test (R(−)-α-methyl histamine stimulated, frontal cortex membrane fraction). Format: biochemical. The settings on record: R(−)-α-methyl histamine 300 nM, [35S]GTP-γ-S 0.3 nM. The protocol:
The frontal cortex dissected from rats was homogenized with a Teflon (registered trademark) homogenizer in a 30 mM Tris-HCl buffer solution (pH 7.4) containing 2.5 mM calcium chloride dihydrate. The homogenate was centrifuged at 48,000×g for 15 minutes. The supernatant was removed and the pellet was suspended in a 30 mM Tris-HCl buffer solution (pH 7.4) containing 2.5 mM calcium chloride dihydrate and centrifuged at 48,000×g for 15 minutes. The supernatant was removed and the pellet was suspended in a 30 mM Tris-HCl buffer solution (pH 7.4) containing 2.5 mM calcium chloride dihydrate and after incubation at 37° C. for 30 minutes, the suspension was centrifuged at 48,000×g for 15 minutes. The resulting supernatant was removed and the pellet was suspended in a 20 mM HEPES buffer solution (pH 7.4) containing 100 mM sodium chloride and 10 mM magnesium chloride to give a membrane fraction. […] After the washing, the filters were dried and a scintillator was added to measure the residual radioactivity on the filter with TopCount (PerkinElmer).
The residual radioactivity in the absence of R(−)-α-methyl histamine was taken as indicative of nonspecific binding and the difference from the residual radioactivity in the presence of R(−)-α-methyl histamine was taken as indicative of specific binding. […]
On the technique in general: GTPγS is a poorly hydrolysed GTP analogue; its binding reports G protein activation.

Setting [3] is: brain, read-out: intracerebral concentration.
Where [4] appears, read: brain/plasma, read-out: brain/plasma movement ratio.
The mark [5] stands for this setting: cerebrospinal fluid, read-out: cerebrospinal fluid concentration.
[6] abbreviates: cerebrospinal fluid/plasma, read-out: cerebrospinal fluid/plasma movement ratio.

The term IC50 denotes the midpoint of a concentration-inhibition curve. High values mean weaker potency, low ones greater potency. Broadly, the efflux ratio is a quotient of directional permeabilities that is used to spot active efflux.

SMILES strings stand for the structures. Where two headings read alike, the source gives them in different places. A value given as a limit tells only on which side of the number the result lay.

T1 sequence (Q9QYN8 whole entry): as above

As for `OCc1cn(-c2ccc(OC3CCN(C4CCC4)CC3)cc2)nn1` [Compound No. 22, (1-{4-[(1-cyclobutylpiperidin-4-yl)oxy]phenyl}-1H-1,2,3-triazol-4-yl)methanol], the half-maximal inhibitory concentration (IC50) at H3 receptor worked out at 5.4 nM. Further, the efflux ratio at 10 μM in data set [1] stood at 1.1. Moreover, the concentration at 1 h in data set [2] (setting [3]) was 209 ng/g; in data set [2] (setting [5]) it was 67.6 ng/mL. Moreover, the Kp at 1 h in data set [2] (setting [4]) turned out to be 1.5; in data set [2] (setting [6]), 0.5.
At H3 receptor, `CNC(=O)c1cn(-c2ccc(OC3CCN(C4CCC4)CC3)cc2)nn1` [Compound No. 19, 1-{4-[(1-cyclobutylpiperidin-4-yl)oxy]phenyl}-N-methyl-1H-1,2,3-triazole-4-carboxamide] showed an IC50 of 22 nM. Further, in data set [1], the efflux ratio at 10 μM amounted to 0.7. The values for the concentration at 1 h in data set [2] (setting [3]) and in data set [2] (setting [5]) were 820 ng/g and 134 ng/mL, respectively. The Kp at 1 h in data set [2] (setting [4]) was determined as 4.4; in data set [2] (setting [6]), 0.7.
`O=C(c1cn(-c2ccc(OC3CCN(C4CCC4)CC3)cc2)nn1)N1CCCC1` [Compound No. 8, (1-{4-[(1-cyclobutylpiperidin-4-yl)oxy]phenyl}-1H-1,2,3-triazol-4-yl)(pyrrolidin-1-yl)methanone]: the values for the half-inhibitory concentration (IC50) at H3 receptor and on histamine H3 receptor were 1.8 nM and no more than 100 nM, respectively. Besides, in data set [1], the efflux ratio at 10 μM turned out to be 1. Moreover, the results for the concentration at 1 h in data set [2] (setting [3]) and in data set [2] (setting [5]) were 45.7 ng/g and 2.9 ng/mL, respectively. In addition, the figures for the Kp at 1 h in data set [2] (setting [4]) and in data set [2] (setting [6]) were 3 and 0.2, respectively.
